Patent US20230002367A1, “BIFUNCTIONAL COMPOUNDS” (Hoffmann-La Roche Inc., priority 2019, published 2023)
Read-outs that look alike come from different tables or passages of the source.

Target: T1, SMARCA2 (Homo sapiens, UniProt P51531)
T1 construct: endogenous in cells
Test: SMARCA2 HiBiT degradation assay (cellular)
Assay type: cell-based
Settings: for DC50: read-out: HiBit A549 SMARCA2 IP

[1] = A549, Emax = amount of residual protein remaining in the cell following compound treatment
[2] = SMARCA2 HiBiT cells, luminescence readout, 11-point titration from 10 μM, 6 hours or 16 hours

T1 sequence (P51531 whole entry): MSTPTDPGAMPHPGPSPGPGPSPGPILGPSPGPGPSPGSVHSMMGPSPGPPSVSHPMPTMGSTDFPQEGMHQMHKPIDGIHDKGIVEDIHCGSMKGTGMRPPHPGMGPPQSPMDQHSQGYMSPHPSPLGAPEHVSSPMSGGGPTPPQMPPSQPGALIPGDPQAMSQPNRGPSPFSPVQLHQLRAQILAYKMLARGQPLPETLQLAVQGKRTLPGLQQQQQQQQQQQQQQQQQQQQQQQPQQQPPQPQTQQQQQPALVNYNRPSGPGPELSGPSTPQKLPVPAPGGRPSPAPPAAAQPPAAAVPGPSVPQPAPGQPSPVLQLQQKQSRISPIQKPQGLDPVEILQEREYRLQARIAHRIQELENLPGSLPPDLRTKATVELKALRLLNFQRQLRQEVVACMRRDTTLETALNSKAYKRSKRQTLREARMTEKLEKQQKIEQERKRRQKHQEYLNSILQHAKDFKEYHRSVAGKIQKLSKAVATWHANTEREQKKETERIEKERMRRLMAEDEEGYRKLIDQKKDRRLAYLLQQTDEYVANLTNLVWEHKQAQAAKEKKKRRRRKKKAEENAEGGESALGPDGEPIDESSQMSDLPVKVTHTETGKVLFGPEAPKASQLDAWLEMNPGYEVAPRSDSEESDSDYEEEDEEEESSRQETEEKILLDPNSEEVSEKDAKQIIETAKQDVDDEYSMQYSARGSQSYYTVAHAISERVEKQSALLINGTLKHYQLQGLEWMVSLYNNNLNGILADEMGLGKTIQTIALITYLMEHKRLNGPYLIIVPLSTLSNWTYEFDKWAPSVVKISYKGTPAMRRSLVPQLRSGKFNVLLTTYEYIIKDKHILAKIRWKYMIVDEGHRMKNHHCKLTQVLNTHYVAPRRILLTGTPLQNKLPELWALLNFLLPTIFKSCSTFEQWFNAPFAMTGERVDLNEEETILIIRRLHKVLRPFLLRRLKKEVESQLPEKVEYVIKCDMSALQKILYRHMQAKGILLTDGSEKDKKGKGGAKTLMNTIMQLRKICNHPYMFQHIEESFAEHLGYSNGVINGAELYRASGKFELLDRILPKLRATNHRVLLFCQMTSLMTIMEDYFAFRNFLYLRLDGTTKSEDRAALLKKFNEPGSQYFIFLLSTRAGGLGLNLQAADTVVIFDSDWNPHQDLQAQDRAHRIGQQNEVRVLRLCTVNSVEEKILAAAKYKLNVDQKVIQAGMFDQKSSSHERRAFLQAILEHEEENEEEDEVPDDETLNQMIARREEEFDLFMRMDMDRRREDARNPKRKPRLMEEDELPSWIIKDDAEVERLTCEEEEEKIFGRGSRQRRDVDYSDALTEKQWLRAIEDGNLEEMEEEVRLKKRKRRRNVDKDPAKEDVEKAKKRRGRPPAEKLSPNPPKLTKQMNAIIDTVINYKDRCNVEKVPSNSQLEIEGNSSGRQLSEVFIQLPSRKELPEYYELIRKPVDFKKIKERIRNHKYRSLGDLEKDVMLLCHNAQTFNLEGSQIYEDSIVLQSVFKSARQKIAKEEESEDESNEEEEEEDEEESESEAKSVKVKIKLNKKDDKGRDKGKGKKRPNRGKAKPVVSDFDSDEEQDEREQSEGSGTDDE

SMILES | Emax [1] [%] | DC50 [2] [nM] | Emax (A549, different HIBIT SMARCA2 clone (footnote a), residual protein remaining) [%] | DC50 (different HIBIT SMARCA2 clone (footnote a)) [nM]
Cc1ncsc1-c1ccc(CNC(=O)[C@@H]2C[C@@H](O)CN2C(=O)[C@@H](NC(=O)CCCCCCCCCC(=O)N2CCN(Cc3cccc(N4C5CCC4CN(c4cc(-c6ccccc6N)nnc4N)C5)c3)CC2)C(C)(C)C)cc1 [Example 102, (2S,4R)-1-[(2S)-2-[[11-[4-[[3-[3-[3-amino-6-(2-aminophenyl)pyridazin-4-yl]-3,8-diazabicyclo[3.2.1]octan-8-yl]phenyl]methyl]piperazin-1-yl]-11-oxo-undecanoyl]amino]-3,3-dimethyl-butanoyl]-4-hydroxy-N-[[4-(4-methylthiazol-5-yl)phenyl]methyl]pyrrolidine-2-carboxamide] | 59 | 992 |  | 
Cc1ncsc1-c1ccc([C@H](C)NC(=O)[C@@H]2C[C@@H](O)CN2C(=O)[C@@H](NC(=O)CCCCCC(=O)N2CCN(C(=O)c3ccc(OC4CN(c5cc(-c6ccccc6O)nnc5N)C4)cc3)CC2)C(C)(C)C)cc1 [Example 103, (2S,4R)-1-[(2S)-2-[[7-[4-[4-[1-[3-amino-6-(2-hydroxyphenyl)pyridazin-4-yl]azetidin-3-yl]oxybenzoyl]piperazin-1-yl]-7-oxo-heptanoyl]amino]-3,3-dimethyl-butanoyl]-4-hydroxy-N-[(1S)-1-[4-(4-methylthiazol-5-yl)phenyl]ethyl]pyrrolidine-2-carboxamide] | 60 | 1890 |  | 
Cc1ncsc1-c1ccc(CNC(=O)[C@@H]2C[C@@H](O)CN2C(=O)[C@@H](NC(=O)CCCCCCCCC(=O)N2CCN(Cc3cccc(N4C5CCC4CN(c4cc(-c6cc(F)ccc6O)nnc4N)C5)c3)CC2)C(C)(C)C)cc1 [Example 107, (2S,4R)-1-[(2S)-2-[[10-[4-[[3-[3-[3-amino-6-(5-fluoro-2-hydroxy-phenyl)pyridazin-4-yl]-3,8-diazabicyclo[3.2.1]octan-8-yl]phenyl]methyl]piperazin-1-yl]-10-oxo-decanoyl]amino]-3,3-dimethyl-butanoyl]-4-hydroxy-N-[[4-(4-methylthiazol-5-yl)phenyl]methyl]pyrrolidine-2-carboxamide] |  |  | 18 | 82
Cc1ncsc1-c1ccc(CNC(=O)[C@@H]2C[C@@H](O)CN2C(=O)[C@@H](NC(=O)CCCCCCCCCC(=O)N2CCN(CCOc3cccc(N4CC5CCC(C4)N5c4cc(-c5cc(F)ccc5O)nnc4N)c3)CC2)C(C)(C)C)cc1 [Example 110, (2S,4R)-1-[(2S)-2-[[11-[4-[2-[3-[8-[3-amino-6-(5-fluoro-2-hydroxy-phenyl)pyridazin-4-yl]-3,8-diazabicyclo[3.2.1]octan-3-yl]phenoxy]ethyl]piperazin-1-yl]-11-oxo-undecanoyl]amino]-3,3-dimethyl-butanoyl]-4-hydroxy-N-[[4-(4-methylthiazol-5-yl)phenyl]methyl]pyrrolidine-2-carboxamide] | 76 | 760 |  | 

Second part, led by results:

Emax [1] [%] | DC50 [2] [nM] | SMILES | Emax (A549, different HIBIT SMARCA2 clone (footnote a), residual protein remaining) [%] | DC50 (different HIBIT SMARCA2 clone (footnote a)) [nM]
54 | 375 | Cc1ncsc1-c1ccc([C@H](C)NC(=O)[C@@H]2C[C@@H](O)CN2C(=O)[C@@H](NC(=O)CCCCCCCCC(=O)N2CCN(C(=O)c3ccc(OC4CN(c5cc(-c6ccccc6O)nnc5N)C4)cc3)CC2)C(C)(C)C)cc1 [Example 104, (2S,4R)-1-[(2S)-2-[[10-[4-[4-[1-[3-amino-6-(2-hydroxyphenyl)pyridazin-4-yl]azetidin-3-yl]oxybenzoyl]piperazin-1-yl]-10-oxo-decanoyl]amino]-3,3-dimethyl-butanoyl]-4-hydroxy-N-[(1S)-1-[4-(4-methylthiazol-5-yl)phenyl]ethyl]pyrrolidine-2-carboxamide] |  | 
40 | 923 | Cc1ncsc1-c1ccc([C@H](C)NC(=O)[C@@H]2C[C@@H](O)CN2C(=O)[C@@H](NC(=O)CCCCCC(=O)N2CCN(Cc3cccc(CCOc4cc(-c5ccccc5O)nnc4N)c3)CC2)C(C)(C)C)cc1 [Example 105, (2S,4R)-1-[(2S)-2-[[7-[4-[[3-[2-[3-amino-6-(2-hydroxyphenyl)pyridazin-4-yl]oxyethyl]phenyl]methyl]piperazin-1-yl]-7-oxo-heptanoyl]amino]-3,3-dimethyl-butanoyl]-4-hydroxy-N-[(1S)-1-[4-(4-methylthiazol-5-yl)phenyl]ethyl]pyrrolidine-2-carboxamide] |  | 
39 | 346 | Cc1ncsc1-c1ccc([C@H](C)NC(=O)[C@@H]2C[C@@H](O)CN2C(=O)[C@@H](NC(=O)CCCCCCCCC(=O)N2CCN(Cc3cccc(CCOc4cc(-c5ccccc5O)nnc4N)c3)CC2)C(C)(C)C)cc1 [Example 106, (2S,4R)-1-[(2S)-2-[[10-[4-[[3-[2-[3-amino-6-(2-hydroxyphenyl)pyridazin-4-yl]oxyethyl]phenyl]methyl]piperazin-1-yl]-10-oxo-decanoyl]amino]-3,3-dimethyl-butanoyl]-4-hydroxy-N-[(1S)-1-[4-(4-methylthiazol-5-yl)phenyl]ethyl]pyrrolidine-2-carboxamide] |  | 
